Laboratory results from ChEMBL document CHEMBL1154277, “Discovery of N-substituted pyridinones as potent and selective inhibitors of p38 kinase” (Bioorg Med Chem Lett, 2009).

How the values were obtained:
[1] = target: Fibroblast growth factor receptor 3 (Homo sapiens) (UniProt P22607); test: Inhibition of FGFR3 at 10 uM
[2] = target: Serine/threonine-protein kinase mTOR (Homo sapiens) (UniProt P42345); test: Inhibition of mTOR at 10 uM
[3] = target: Insulin receptor-related protein (Homo sapiens) (UniProt P14616); test: Inhibition of INSRR at 10 uM
[4] = target: Tyrosine-protein kinase JAK2 (Homo sapiens) (UniProt O60674); test: Inhibition of JAK2 at 10 uM
[5] = target: Mast/stem cell growth factor receptor Kit (Homo sapiens) (UniProt P10721); test: Inhibition of KIT at 10 uM
Mast/stem cell growth factor receptor Kit (Homo sapiens), sequence (P10721 whole entry): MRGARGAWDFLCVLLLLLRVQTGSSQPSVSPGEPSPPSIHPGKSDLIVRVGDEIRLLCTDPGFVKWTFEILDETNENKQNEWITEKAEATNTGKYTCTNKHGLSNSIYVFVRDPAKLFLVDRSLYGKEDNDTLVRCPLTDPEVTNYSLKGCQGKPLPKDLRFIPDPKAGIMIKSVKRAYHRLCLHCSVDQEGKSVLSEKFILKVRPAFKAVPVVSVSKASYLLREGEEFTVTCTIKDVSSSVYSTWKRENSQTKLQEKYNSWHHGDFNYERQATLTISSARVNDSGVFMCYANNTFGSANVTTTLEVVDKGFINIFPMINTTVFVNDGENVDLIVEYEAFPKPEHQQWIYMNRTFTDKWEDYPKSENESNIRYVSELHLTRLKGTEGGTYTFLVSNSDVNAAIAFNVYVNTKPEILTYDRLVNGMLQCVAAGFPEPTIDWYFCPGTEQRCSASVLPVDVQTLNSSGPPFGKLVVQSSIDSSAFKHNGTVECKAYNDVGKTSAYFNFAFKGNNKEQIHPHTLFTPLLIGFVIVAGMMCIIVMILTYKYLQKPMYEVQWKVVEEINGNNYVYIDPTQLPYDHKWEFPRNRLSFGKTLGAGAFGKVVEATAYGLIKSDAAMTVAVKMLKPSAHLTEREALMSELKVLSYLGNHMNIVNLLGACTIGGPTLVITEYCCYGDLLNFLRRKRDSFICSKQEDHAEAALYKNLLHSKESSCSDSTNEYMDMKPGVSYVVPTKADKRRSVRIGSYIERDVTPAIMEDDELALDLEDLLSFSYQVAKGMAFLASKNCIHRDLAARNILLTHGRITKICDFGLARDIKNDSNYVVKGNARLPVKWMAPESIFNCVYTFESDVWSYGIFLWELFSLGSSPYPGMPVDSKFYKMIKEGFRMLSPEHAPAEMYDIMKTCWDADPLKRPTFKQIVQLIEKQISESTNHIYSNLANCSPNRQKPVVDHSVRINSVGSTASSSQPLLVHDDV

[6] = test system: Mast/stem cell growth factor receptor Kit (Homo sapiens), P10721 [T670I]; test: Inhibition of KIT T670I (mutant) at 10 uM
Mast/stem cell growth factor receptor Kit (Homo sapiens), P10721 [T670I], sequence (P10721 whole entry T670I): as the sequence (P10721 whole entry) above, with T670I counted along it

[7] = target: Tyrosine-protein kinase Lck (Homo sapiens) (UniProt P06239); test: Inhibition of LCK at 10 uM
Tyrosine-protein kinase Lck (Homo sapiens), sequence (P06239 2-509 limits assumed): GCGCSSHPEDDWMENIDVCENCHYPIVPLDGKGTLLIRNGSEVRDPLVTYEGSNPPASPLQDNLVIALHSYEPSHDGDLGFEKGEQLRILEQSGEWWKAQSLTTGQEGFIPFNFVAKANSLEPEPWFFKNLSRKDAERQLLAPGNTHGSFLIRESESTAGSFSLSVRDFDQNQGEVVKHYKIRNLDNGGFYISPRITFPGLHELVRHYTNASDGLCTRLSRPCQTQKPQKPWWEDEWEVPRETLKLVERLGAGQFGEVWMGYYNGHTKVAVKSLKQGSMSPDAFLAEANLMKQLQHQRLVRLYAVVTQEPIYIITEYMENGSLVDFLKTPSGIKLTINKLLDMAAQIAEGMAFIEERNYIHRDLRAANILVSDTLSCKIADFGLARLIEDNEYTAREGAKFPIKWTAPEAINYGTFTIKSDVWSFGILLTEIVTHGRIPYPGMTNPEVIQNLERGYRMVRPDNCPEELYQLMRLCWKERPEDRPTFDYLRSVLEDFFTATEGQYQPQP

[8] = target: Dual specificity mitogen-activated protein kinase kinase 6 (Homo sapiens) (UniProt P52564); test: Inhibition of MKK6 at 10 uM
[9] = target: Mitogen-activated protein kinase kinase kinase kinase 2 (Homo sapiens) (UniProt Q12851); test: Inhibition of GCK at 10 uM
[10] = target: Mitogen-activated protein kinase 1 (Homo sapiens) (UniProt P28482); test: Inhibition of ERK2 at 10 uM
[11] = target: Mitogen-activated protein kinase 10 (Homo sapiens) (UniProt P53779); test: Inhibition of JNK3 at 10 uM
[12] = target: Glycogen synthase kinase-3 beta (Homo sapiens) (UniProt P49841); test: Inhibition of GSK3-beta at 10 uM
[13] = target: Tyrosine-protein kinase HCK (Homo sapiens) (UniProt P08631); test: Inhibition of HCK at 10 uM
[14] = target: Homeodomain-interacting protein kinase 4 (Homo sapiens) (UniProt Q8NE63); test: Inhibition of HIPK4 at 10 uM
[15] = target: Mitogen-activated protein kinase 8 (Homo sapiens) (UniProt P45983); test: Inhibition of JNK1 at 10 uM
[16] = target: MAP kinase-activated protein kinase 3 (Homo sapiens) (UniProt Q16644); test: Inhibition of MAPKAPK3 at 10 uM
[17] = target: Serine/threonine-protein kinase MARK1 (Homo sapiens) (UniProt Q9P0L2); test: Inhibition of MARK1 at 10 uM
[18] = target: MAP/microtubule affinity-regulating kinase 3 (Homo sapiens) (UniProt P27448); test: Inhibition of MARK3 at 10 uM
[19] = target: Misshapen-like kinase 1 (Homo sapiens) (UniProt Q8N4C8); test: Inhibition of MINK1 at 10 uM
[20] = target: Serine/threonine-protein kinase Nek6 (Homo sapiens) (UniProt Q9HC98); test: Inhibition of NEK6 at 10 uM
[21] = target: Serine/threonine-protein kinase PAK 1 (Homo sapiens) (UniProt Q13153); test: Inhibition of PAK1 at 10 uM
[22] = target: Phosphorylase b kinase gamma catalytic chain, skeletal muscle/heart isoform (Homo sapiens) (UniProt Q16816); test: Inhibition of PHKgamma1 at 10 uM
[23] = target: Phosphorylase b kinase gamma catalytic chain, liver/testis isoform (Homo sapiens) (UniProt P15735); test: Inhibition of PHKgamma2 at 10 uM
Phosphorylase b kinase gamma catalytic chain, liver/testis isoform (Homo sapiens), sequence (P15735 whole entry, canonical isoform): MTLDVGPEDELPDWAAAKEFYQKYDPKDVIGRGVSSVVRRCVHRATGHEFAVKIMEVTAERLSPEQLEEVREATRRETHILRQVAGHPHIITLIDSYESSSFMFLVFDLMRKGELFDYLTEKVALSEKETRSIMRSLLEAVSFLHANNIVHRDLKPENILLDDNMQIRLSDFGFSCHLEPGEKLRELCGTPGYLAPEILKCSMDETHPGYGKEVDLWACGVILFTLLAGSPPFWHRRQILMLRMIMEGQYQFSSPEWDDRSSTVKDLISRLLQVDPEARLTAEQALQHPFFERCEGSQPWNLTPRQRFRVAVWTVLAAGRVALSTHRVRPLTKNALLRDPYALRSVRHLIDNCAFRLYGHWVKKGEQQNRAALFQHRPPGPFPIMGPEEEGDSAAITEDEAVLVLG

[24] = target: Serine/threonine-protein kinase PLK1 (Homo sapiens) (UniProt P53350); test: Inhibition of PLK1 at 10 uM
[25] = target: Serine/threonine-protein kinase PLK3 (Homo sapiens) (UniProt Q9H4B4); test: Inhibition of PLK3 at 10 uM
[26] = Inhibition of PKA at 10 uM
[27] = target: Protein kinase C eta type (Homo sapiens) (UniProt P24723); test: Inhibition of PKCeta at 10 uM
[28] = target: Focal adhesion kinase 1 (Homo sapiens) (UniProt Q05397); test: Inhibition of FAK at 10 uM
[29] = test system: Proto-oncogene tyrosine-protein kinase receptor Ret (Homo sapiens), P07949 [V804L]; test: Inhibition of RET V804L (mutant) at 10 uM
[30] = target: Ribosomal protein S6 kinase alpha-4 (Homo sapiens) (UniProt O75676); test: Inhibition of MSK2 at 10 uM
[31] = target: Serine/threonine-protein kinase Sgk3 (Homo sapiens) (UniProt Q96BR1); test: Inhibition of SGK3 at 10 uM
[32] = target: Testis-specific serine/threonine-protein kinase 1 (Homo sapiens) (UniProt Q9BXA7); test: Inhibition of TSSK1 at 10 uM
[33] = target: Serine/threonine-protein kinase 4 (Homo sapiens) (UniProt Q13043); test: Inhibition of MST1 at 10 uM
[34] = target: Tyrosine-protein kinase ZAP-70 (Homo sapiens) (UniProt P43403); test: Inhibition of ZAP70 at 10 uM
[35] = Clearance in po dosed Sprague-Dawley rat; type: ADME, organism-based; conditions: in vivo
[36] = test system: Leucine-rich repeat serine/threonine-protein kinase 2 (Homo sapiens), Q5S007 [G2019S]; test: Inhibition of LRRK2 G2019S mutant at 10 uM
Leucine-rich repeat serine/threonine-protein kinase 2 (Homo sapiens), Q5S007 [G2019S], sequence (Q5S007 whole entry G2019S): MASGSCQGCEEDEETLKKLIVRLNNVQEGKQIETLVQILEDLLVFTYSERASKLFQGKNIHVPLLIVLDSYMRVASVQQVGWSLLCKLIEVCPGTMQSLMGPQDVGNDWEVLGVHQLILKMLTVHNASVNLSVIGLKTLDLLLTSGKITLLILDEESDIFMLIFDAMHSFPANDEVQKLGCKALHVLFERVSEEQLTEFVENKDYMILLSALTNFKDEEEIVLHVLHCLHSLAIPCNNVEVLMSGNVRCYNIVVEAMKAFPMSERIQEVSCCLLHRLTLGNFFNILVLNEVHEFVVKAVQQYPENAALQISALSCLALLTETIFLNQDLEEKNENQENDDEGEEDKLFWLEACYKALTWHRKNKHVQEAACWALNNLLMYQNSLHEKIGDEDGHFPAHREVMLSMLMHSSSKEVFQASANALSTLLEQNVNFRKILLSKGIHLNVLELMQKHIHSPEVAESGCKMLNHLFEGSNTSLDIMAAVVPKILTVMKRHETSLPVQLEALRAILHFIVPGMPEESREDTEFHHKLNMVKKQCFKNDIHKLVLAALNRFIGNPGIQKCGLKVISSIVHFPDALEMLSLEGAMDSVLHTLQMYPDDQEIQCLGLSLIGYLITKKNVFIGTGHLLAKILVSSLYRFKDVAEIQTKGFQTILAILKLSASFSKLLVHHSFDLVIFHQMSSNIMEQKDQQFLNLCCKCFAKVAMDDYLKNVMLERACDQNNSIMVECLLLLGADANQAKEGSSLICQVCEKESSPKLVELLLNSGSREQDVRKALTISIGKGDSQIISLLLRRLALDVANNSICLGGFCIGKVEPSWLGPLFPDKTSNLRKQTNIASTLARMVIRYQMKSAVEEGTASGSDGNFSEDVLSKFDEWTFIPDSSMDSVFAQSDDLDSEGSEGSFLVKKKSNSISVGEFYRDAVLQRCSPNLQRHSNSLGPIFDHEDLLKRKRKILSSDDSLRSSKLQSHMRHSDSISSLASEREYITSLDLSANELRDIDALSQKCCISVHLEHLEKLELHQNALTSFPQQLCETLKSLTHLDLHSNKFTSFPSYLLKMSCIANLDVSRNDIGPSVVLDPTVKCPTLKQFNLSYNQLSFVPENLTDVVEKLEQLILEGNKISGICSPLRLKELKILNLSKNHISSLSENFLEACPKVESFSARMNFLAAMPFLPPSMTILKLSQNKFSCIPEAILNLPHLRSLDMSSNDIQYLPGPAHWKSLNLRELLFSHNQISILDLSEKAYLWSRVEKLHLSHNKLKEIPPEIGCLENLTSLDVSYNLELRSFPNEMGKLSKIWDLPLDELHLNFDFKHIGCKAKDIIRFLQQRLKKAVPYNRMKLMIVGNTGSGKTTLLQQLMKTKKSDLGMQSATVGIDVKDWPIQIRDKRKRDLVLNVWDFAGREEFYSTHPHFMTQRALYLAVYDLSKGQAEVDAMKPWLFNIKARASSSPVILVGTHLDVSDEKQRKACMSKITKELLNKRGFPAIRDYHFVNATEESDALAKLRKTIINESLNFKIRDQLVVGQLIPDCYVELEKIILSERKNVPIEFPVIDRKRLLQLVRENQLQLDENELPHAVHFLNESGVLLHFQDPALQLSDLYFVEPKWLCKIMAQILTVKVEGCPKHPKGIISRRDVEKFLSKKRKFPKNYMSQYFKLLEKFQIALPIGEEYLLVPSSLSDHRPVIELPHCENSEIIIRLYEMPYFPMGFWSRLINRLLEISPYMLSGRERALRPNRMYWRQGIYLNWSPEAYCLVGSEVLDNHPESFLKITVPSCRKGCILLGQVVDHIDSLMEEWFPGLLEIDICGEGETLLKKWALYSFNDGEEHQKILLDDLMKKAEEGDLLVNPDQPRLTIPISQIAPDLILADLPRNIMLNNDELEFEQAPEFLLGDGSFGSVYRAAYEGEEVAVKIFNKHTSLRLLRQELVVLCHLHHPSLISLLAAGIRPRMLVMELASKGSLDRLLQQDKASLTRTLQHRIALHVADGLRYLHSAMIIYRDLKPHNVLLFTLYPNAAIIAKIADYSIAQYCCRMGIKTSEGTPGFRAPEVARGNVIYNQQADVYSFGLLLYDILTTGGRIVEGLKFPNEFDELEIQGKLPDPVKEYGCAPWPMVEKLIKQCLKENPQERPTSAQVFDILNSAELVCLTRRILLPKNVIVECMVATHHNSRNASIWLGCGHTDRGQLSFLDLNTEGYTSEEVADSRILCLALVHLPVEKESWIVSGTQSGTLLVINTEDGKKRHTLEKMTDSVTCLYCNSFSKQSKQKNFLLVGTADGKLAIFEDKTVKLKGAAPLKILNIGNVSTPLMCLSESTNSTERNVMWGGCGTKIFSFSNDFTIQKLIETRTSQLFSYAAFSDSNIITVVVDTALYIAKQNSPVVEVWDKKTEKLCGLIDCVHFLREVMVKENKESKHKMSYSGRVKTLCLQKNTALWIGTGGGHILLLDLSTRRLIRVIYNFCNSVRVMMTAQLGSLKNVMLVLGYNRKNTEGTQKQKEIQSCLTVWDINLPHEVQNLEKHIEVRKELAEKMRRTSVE

[37] = test system: Tyrosine-protein kinase ABL1 (Homo sapiens), P00519 [Y253F]; test: Inhibition of ABL1 Y253F (mutant) at 10 uM
[38] = target: RAC-beta serine/threonine-protein kinase (Homo sapiens) (UniProt P31751); test: Inhibition of AKT2 at 10 uM
RAC-beta serine/threonine-protein kinase (Homo sapiens), sequence (P31751 whole entry): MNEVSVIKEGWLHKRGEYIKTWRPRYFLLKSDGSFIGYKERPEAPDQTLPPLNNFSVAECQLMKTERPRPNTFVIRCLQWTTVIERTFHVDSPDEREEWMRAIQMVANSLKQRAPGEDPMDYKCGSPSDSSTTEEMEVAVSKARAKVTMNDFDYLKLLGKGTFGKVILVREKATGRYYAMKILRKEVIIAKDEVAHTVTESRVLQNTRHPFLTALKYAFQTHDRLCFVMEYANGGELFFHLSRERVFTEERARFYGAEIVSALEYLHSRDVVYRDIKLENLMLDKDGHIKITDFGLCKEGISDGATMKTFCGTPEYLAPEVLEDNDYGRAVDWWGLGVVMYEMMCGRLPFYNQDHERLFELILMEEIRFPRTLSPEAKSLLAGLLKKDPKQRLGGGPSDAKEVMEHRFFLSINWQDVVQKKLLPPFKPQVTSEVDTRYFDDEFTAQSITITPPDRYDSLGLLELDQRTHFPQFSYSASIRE

[39] = target: Serine/threonine-protein kinase B-raf (Homo sapiens) (UniProt P15056); test: Inhibition of B-Raf at 10 uM
[40] = target: Dual specificity protein kinase CLK1 (Homo sapiens) (UniProt P49759); test: Inhibition of CLK1 at 10 uM
[41] = target: Casein kinase I isoform epsilon (Homo sapiens) (UniProt P49674); test: Inhibition of CSNK1E at 10 uM
[42] = target: Casein kinase II subunit alpha (Homo sapiens) (UniProt P68400); test: Inhibition of CK2alpha1 at 10 uM
[43] = target: Death-associated protein kinase 3 (Homo sapiens) (UniProt O43293); test: Inhibition of ZIPK at 10 uM
[44] = target: Eukaryotic elongation factor 2 kinase (Homo sapiens) (UniProt O00418); test: Inhibition of EEF2K at 10 uM
[45] = target: Epidermal growth factor receptor (Homo sapiens) (UniProt P00533); test: Inhibition of EGFR at 10 uM
[46] = test system: Epidermal growth factor receptor (Homo sapiens), P00533 [T790M]; test: Inhibition of EGFR T790M (mutant) at 10 uM; type: protein assay
[47] = target: 3-phosphoinositide-dependent protein kinase 1 (Homo sapiens) (UniProt O15530); test: Inhibition of PDK1 at 10 uM

Cc1cc(OCc2ccc(F)cc2F)c(Br)c(=O)n1Cc1ccc(CN(C)C)cc1
70 mL/min/kg: CL/F [35]
< 50%: inhibition [1] | inhibition [2] | inhibition [3] | inhibition [4] | inhibition [5] | inhibition [6] | inhibition [7] | inhibition [8] | inhibition [9] | inhibition [10] | inhibition [11] | inhibition [12] | inhibition [13] | inhibition [14] | inhibition [15] | inhibition [16] | inhibition [17] | inhibition [18] | inhibition [19] | inhibition [20] | inhibition [21] | inhibition [22] | inhibition [23] | inhibition [24] | inhibition [25] | inhibition [26] | inhibition [27] | inhibition [28] | inhibition [29] | inhibition [30] | inhibition [31] | inhibition [32] | inhibition [33] | inhibition [34] | inhibition [36] | inhibition [37] | inhibition [38] | inhibition [39] | inhibition [40] | inhibition [41] | inhibition [42] | inhibition [43] | inhibition [44] | inhibition [45] | inhibition [46] | inhibition [47]
